Our source for the melting point values is a melting point compilation (Tetko et al.).

The melting point is the temperature, or range, at which the solid turns liquid.

The compound `Nc1ccc(O)c(S(N)(=O)=O)c1` returned a melting point of 169 to 171 °C.

`CCn1cc(C(F)(F)C(=O)O)cn1` yielded a melting point of 99 to 101 °C.

`Nc1nc(C(=O)Nc2ccccc2)cs1` displayed a melting point of 169 to 171 °C.

`CCC(C)C(O)C(=O)O` (stereo not drawn): the melting point lay within 45 to 47 °C.

`CC(=O)Nc1ccc(Cl)cc1N` came in with a melting point of 141 to 143 °C.

For `CC(=O)N(C)Cc1ccc(C(=O)CCl)cc1`, the melting point is 45 to 47 °C.

In turn, `CCN1CCN(c2ccc(C(C)=O)cc2F)CC1` came in with a melting point of 68 to 70 °C.

Regarding `CNC(=O)COc1cccc(Br)c1`, the melting point fell in the range of 94 to 96 °C.

Regarding `CCN1CCCC1CN=C=S` (stereo not drawn), the melting point lay in the range of 43 to 45 °C.

Take `CS(=O)(=O)NCc1ccc(C(=O)O)o1`: the melting point fell in the range of 139 to 141 °C.

For the compound `CCC(C)(NC(=O)c1ccccc1)C(N)=S` (stereo not drawn), the melting point was in the range of 162 to 164 °C.

In turn, `CC(=O)N1c2ccccc2C[C@H]1C(=O)O` displayed a melting point of 194 to 196 °C.

Turning to `O=C(O)c1cc(-c2ccccc2)ns1`, the melting point is 183 to 185 °C.

Turning to `Nc1ccc2c(c1)S(=O)(=O)NC2=O`, the melting point is 279 to 281 °C.

As to `Cc1ccc(NC(=O)c2c(F)cccc2Cl)c(C(=O)O)c1`, the melting point fell in the range of 249 to 251 °C.

`NNC(=O)c1ccccn1` showed a melting point of 95 to 100 °C.

`O=C(O)C1CS(=O)(=O)c2ccccc2O1` (stereo not drawn) gave a melting point of 239 to 241 °C.

For the compound `O=C(O)C1=CCCCO1`, the melting point lay within 66 to 68 °C.

With `O=[N+]([O-])c1cc(S(=O)(=O)N2CCCC2)ccc1Cl`, the melting point was in the range of 96 to 100 °C.

As to `O=[N+]([O-])c1ccccc1NCCO`, the melting point is 76 to 78 °C.

Compound `CS(=O)(=O)c1ccc(Oc2ccc(N)cc2)cc1` yielded a melting point of 152 to 154 °C.

Regarding `CCOC(=O)c1c(C)nn(C)c1N`, the melting point lay in the range of 101 to 103 °C.

`O=C1CC(c2ccccc2)NCCN1` (stereo not drawn) yielded a melting point of 102 to 104 °C.

In turn, `Nc1cnn(Cc2ccc(Cl)cc2)c1` registered a melting point of 49 to 51 °C.

With `Cc1ccn2c(C(=O)O)cnc2c1`, the melting point lay in the range of 159 to 161 °C.

`O=C(O)CNc1ccc(Br)cc1` registered a melting point of 154 to 156 °C.

Regarding `CNCc1cn(C)c(=O)n(C)c1=O`, the melting point is 128 to 130 °C.

Regarding `Nc1cc(Cl)ccc1C(=O)N1CCCCC1`, the melting point was 103 to 105 °C.

Compound `COc1cc(-c2cc(C(=O)NN)c3ccccc3n2)cc(OC)c1OC` came in with a melting point of 200 to 202 °C.

The compound `O=[N+]([O-])c1cccc(C(F)F)c1Br` showed a melting point of 29 to 31 °C.

In turn, `Cn1c(S)nnc1COc1ccc(Cl)cc1` had a melting point of 118 to 120 °C.

`COc1cc2c(cc1OC)S(=O)(=O)NC2=O` registered a melting point of 279 to 281 °C.

With `OCCCOc1ccc(Br)cc1`, the melting point fell in the range of 34 to 36 °C.

For `COC(=O)c1cc([N+](=O)[O-])c(F)cc1Cl`, the melting point was 59 to 61 °C.

As to `Cc1ccc(OCCCC(=O)Nc2ccc(CN)cc2)cc1`, the melting point fell in the range of 97 to 99 °C.

As to `COc1ccc(C(=O)O)cc1S(=O)(=O)N1CCCCCC1`, the melting point is 190 to 194 °C.

Turning to `N#CC(=Cc1ccc2c(c1)OCO2)C(=O)O`, the melting point fell in the range of 205 to 207 °C.

Regarding `N#Cc1ccccc1/C=C/C(=O)O`, the melting point was 255 to 257 °C.

Compound `CSc1nnnn1-c1cccc(N)c1` yielded a melting point of 113 to 115 °C.

Compound `O=C1NC(=O)C2(CCSCC2)N1` showed a melting point of 265 to 267 °C.

The compound `COc1cc(Cl)c(S(=O)(=O)Cl)cc1Cl` showed a melting point of 76 to 78 °C.

The compound `NC(=S)c1ccc(NC(=O)CC2CCCC2)cc1` had a melting point of 195 to 197 °C.

`Nc1cccn(Cc2ccc(F)cc2)c1=O` registered a melting point of 110 to 112 °C.

On to `O=Cc1cn(-c2ccccc2)nc1-c1ccccc1`, for which the melting point was 144 to 148 °C.

`Clc1nc(-c2cccs2)nc2scc(-c3ccccc3)c12` showed a melting point of 143 to 145 °C.

`O=C(O)CCNc1nccs1` displayed a melting point of 171 to 173 °C.

As to `Nc1cccc(NS(=O)(=O)c2ccc(Cl)cc2)c1`, the melting point is 112 to 114 °C.

In the case of `NCC1(O)CCSCC1`, the melting point lay within 65 to 67 °C.

`O=C(O)C1CC1c1cccc(C(F)(F)F)c1` (stereo not drawn): the melting point lay within 84 to 86 °C.

Turning to `CCS(=O)(=O)NCCC(=O)O`, the melting point is 63 to 65 °C.

Consider `Cc1cc(N)ccc1NC(=O)c1ccco1`, for which the melting point fell in the range of 173 to 175 °C.

Compound `NC(=O)CC(N)=S` yielded a melting point of 97 to 110 °C.

In the case of `O=C(O)c1cn(-c2ccccc2)nc1-c1cccnc1`, the melting point is 238 to 240 °C.

In the case of `COCCn1c(S)nc2cc(Cl)ccc21`, the melting point was 195 to 197 °C.

`CCC(C)c1csc(NC)n1` (stereo not drawn) registered a melting point of 49 to 51 °C.

For `COC(C)c1nc(C)c(C(=O)O)s1` (stereo not drawn), the melting point was in the range of 126 to 128 °C.

Turning to `Cn1cc(N2CCCC(Br)C2=O)cn1` (stereo not drawn), the melting point lay in the range of 121 to 123 °C.

In turn, `COc1cc(Br)c(S(=O)(=O)Cl)cc1Cl` returned a melting point of 89 to 91 °C.

As to `O=Cc1ccc(-c2nn(-c3ccccc3)cc2C=O)o1`, the melting point is 146 to 148 °C.

`Cc1noc(C)c1COc1ccc(CC(=O)O)cc1` showed a melting point of 138 to 140 °C.

With `O=C(C(Cl)c1ccccc1)N1CCCCC1` (stereo not drawn), the melting point was 63 to 74 °C.

`O=C(CCl)Nc1cc(C(F)(F)F)ccc1Cl` had a melting point of 71 to 73 °C.

The compound `O=Cc1ccc(OCC(=O)O)c(Br)c1` came in with a melting point of 196 to 198 °C.

On to `Cc1ccc(N2CCCC2)c(C#N)c1`, for which the melting point fell in the range of 42 to 44 °C.

`BrCCOc1ccc(Oc2ccccc2)cc1` displayed a melting point of 35 to 37 °C.

For `Cc1cc(O)cc(=O)o1`, the melting point fell in the range of 188 to 190 °C.

Consider `Cn1ccnc1SCC(=O)Nc1ccccc1C(=O)O`, for which the melting point fell in the range of 203 to 205 °C.

`CC(=O)NCc1ccc(C(=O)C(C)Cl)o1` (stereo not drawn) yielded a melting point of 64 to 66 °C.

Regarding `NC1CCCCNC1=O` (stereo not drawn), the melting point was in the range of 54 to 56 °C.

Consider `Fc1cc2nc(S)[nH]c2cc1F`, for which the melting point lay within 291 to 293 °C.

On to `O=C1CCS(=O)(=O)O1`, for which the melting point lay in the range of 69 to 71 °C.

The compound `CC(O)C(NS(=O)(=O)c1cccs1)C(=O)O` (stereo not drawn) registered a melting point of 183 to 185 °C.

As to `O=C(O)c1cc2c(cc1O)OCO2`, the melting point is 189 to 191 °C.

In turn, `ON=Cc1ccc(OCc2cccnc2)cc1` came in with a melting point of 187 to 189 °C.

As for `Fc1ccc(-c2csc(Nc3ccccc3)n2)cc1`, the melting point fell in the range of 91 to 93 °C.

`O=C1CNC2(CCCCC2)C(=O)N1`: the melting point was in the range of 184 to 186 °C.

Regarding `NCCCCc1cn[nH]c1`, the melting point fell in the range of 72 to 74 °C.

For the compound `CCOC(=O)c1cnc2c(OC)cc(Cl)c(OC)c2c1Cl`, the melting point lay within 152 to 154 °C.

`NNC(=O)c1ccc(Cl)cc1F` had a melting point of 135 to 137 °C.

In the case of `OCC1(NCc2ccccc2)CCC1`, the melting point is 51 to 53 °C.

`Sc1nnc(-c2cccnc2)n1Cc1ccco1` showed a melting point of 117 to 119 °C.

As for `COCCOc1ccc(C(C)=O)cc1OC`, the melting point was 85 to 87 °C.

For the compound `CC(C)(C)c1ccc(C(=O)Nc2ccccc2N)cc1`, the melting point was 175 to 177 °C.

For `Cc1cccc2[nH]c(CC#N)nc12`, the melting point is 158 to 160 °C.

In the case of `O=C1NC(=O)c2cc(S(=O)(=O)Cl)ccc21`, the melting point lay within 163 to 165 °C.

Compound `Clc1cccc(-c2ccccn2)n1` yielded a melting point of 62 to 64 °C.

On to `COC(=O)C(C#N)=Cc1cccc(F)c1`, for which the melting point was 107 to 109 °C.

`COCc1nc(OC)c2c(C)c(C(=O)O)sc2n1` registered a melting point of 188 to 190 °C.

For `CCOC(=O)COc1ccccc1C(C)=O`, the melting point lay within 44 to 46 °C.

Regarding `O=C(O)Cc1cc(Cl)c2c(c1)OCCCO2`, the melting point is 166 to 168 °C.

Compound `NCc1cc2sccc2s1` registered a melting point of 58 to 60 °C.

On to `CC(C)(C)OC(=O)Nc1cc(C(=O)O)ccc1F`, for which the melting point was 177 to 179 °C.

The compound `Nc1nccc(-c2cccnc2)n1` registered a melting point of 188 to 190 °C.

As for `NC(=O)Cc1cc(Br)c(-c2ccc(N)cc2)s1`, the melting point fell in the range of 189 to 191 °C.

Compound `NC(=S)CN1C(=O)c2ccccc2S1(=O)=O` yielded a melting point of 160 to 162 °C.

For `Cc1ccccc1SCC(=O)O`, the melting point was 108 to 110 °C.

Consider `Cc1nn(C)c(C(=O)O)c1[N+](=O)[O-]`, for which the melting point fell in the range of 146 to 148 °C.

As to `CCOC(=O)c1c(C)[nH]c(C=O)c1C`, the melting point lay within 162 to 164 °C.

Compound `NNc1ccc(S(=O)(=O)Nc2cccc(Cl)c2)cc1[N+](=O)[O-]` displayed a melting point of 195 to 197 °C.

The compound `N#Cc1cc2c([nH]c1=O)CCC(c1ccccc1)C2` (stereo not drawn) displayed a melting point of 279 to 281 °C.

`COC(=O)C1CC(OC)=CC1=O` (stereo not drawn) had a melting point of 47 to 49 °C.

`Nc1ccc(-c2nnco2)cc1` displayed a melting point of 155 to 157 °C.

With `Cc1cc(C(=O)NN)c2ccccc2n1`, the melting point fell in the range of 177 to 179 °C.

`COc1cc(CC#N)ccc1[N+](=O)[O-]` returned a melting point of 84 to 86 °C.

`NC(=O)C1CCN(c2ccc(N)cc2)CC1` gave a melting point of 205 to 207 °C.

For `O=C(O)CCNC(=O)c1ccc(F)cc1Cl`, the melting point lay in the range of 141 to 143 °C.

`N#Cc1ccccc1CN1CCCC1C(N)=O` (stereo not drawn) returned a melting point of 88 to 90 °C.

Compound `NS(=O)(=O)c1cnn(CCC(=O)O)c1` registered a melting point of 126 to 128 °C.

`COc1ccccc1NC(=O)Cc1noc(CCl)n1` registered a melting point of 95 to 97 °C.

Consider `CC(CCOc1ccccc1)C(=O)O` (stereo not drawn), for which the melting point was 76 to 78 °C.

`CC(C)(C)OC(=O)Nc1cc2c(cc1N)OCCO2`: the melting point fell in the range of 119 to 121 °C.

In turn, `Clc1cccc2cc(I)cnc12` showed a melting point of 97 to 99 °C.

Regarding `O=C(O)CCSc1ccc(F)cc1`, the melting point lay within 76 to 78 °C.

Take `Cc1cccc(Nc2nnc(S)s2)c1`: the melting point fell in the range of 196 to 198 °C.

As to `CCn1nc(C(=O)O)ccc1=O`, the melting point was in the range of 203 to 205 °C.

As for `COc1ccccc1N1CC(C(=O)O)CC1=O` (stereo not drawn), the melting point lay within 139 to 141 °C.

Consider `Nc1ccc(Cl)c(S(=O)(=O)Nc2ccc(Cl)cc2)c1`, for which the melting point fell in the range of 123 to 125 °C.

Turning to `CCN(CC)Cc1nc(Cl)c2c(C)c(C)sc2n1`, the melting point was 30 to 32 °C.

As for `NC1CCN(C(=O)C2CCCCC2)CC1`, the melting point lay within 78 to 80 °C.

The compound `O=C(O)c1cccnc1OCCO` registered a melting point of 196 to 198 °C.

`CC(C)C(Oc1ccc(Br)cc1)C(=O)O` (stereo not drawn): the melting point fell in the range of 105 to 107 °C.

On to `CCc1cc(O)ccc1Cl`, for which the melting point lay within 45 to 50 °C.

Turning to `O=[N+]([O-])c1cnc(Br)c(Br)c1`, the melting point was in the range of 76 to 78 °C.
